Data set [1] is described as follows: Swelling / stability of hydrogels in excess water. To be noted: 12 mg mL^–1 peptide, 0.8 mg mL^–1 polymer where loaded, 1 mL gel + 3 mL HPLC grade water. The data set is classed as physicochemical. As to the method:
Hydrogels were prepared as described earlier at 12 mg mL^–1, and 1 mL was transferred into 5 mL cylindrical glass vials. Vials were gently tapped on the bench to eliminate any bubbles and obtained flat surfaces, and the height of the hydrogels was measured (day 0). Three milliliters of HPLC-grade water was then added on the top of the hydrogels. After being stored the samples for 10 days at 37 °C, the vials were inverted, and the height of the hydrogels was measured once again (day 10). The swelling ratio (Q) was defined as (H1 – H0)/H0, where H0 is the height of the hydrogel at day 0 and H1 is the height of the hydrogel at day 10.

For data set [2], the system named is immortalized human bone marrow-derived MSC line (Y201). The data set is classed as cell-based. As to the method:
(§1) 3T3 mouse fibroblast and an immortalized human bone marrow-derived MSC line (Y201)[37] were used to assess the cytocompatibility of the hydrogels. The 3T3 cells were cultured in Dulbecco’s Modified Eagle’s Medium (DMEM) (Gibco), 1% penicillin–streptomycin (Sigma–Aldrich, P0781), and 10% fetal bovine serum (Sigma–Aldrich, F9665), while the MSCs were cultured in Minimum Essential Medium Eagle (αMEM) (Sigma-Aldrich, M4526), 10% fetal bovine serum (Sigma–Aldrich, F7524), 1% antibiotic/antimycotic solution (Sigma–Aldrich, A5955), 1% GlutaMAX (Life Technologies, 35050038), and 0.01% L-ascorbic acid 2-phosphate (Sigma–Aldrich, A8960). Cells were harvested when reaching 70–80% confluency. For cell counting, the cell suspension was mixed (1:1 ratio) with a 0.4% trypan blue solution (Bio-Rad) and cell counted using an automated cell counter (Cellometer Auto 1000, Nexcelom).
(§2) Hydrogel samples were removed from the fridge (4 °C) and prewarmed to 37 °C. Cells were encapsulated into the hydrogel by gentle pipetting to ensure an evenly mixed sample, at a final density of 1 × 10^6 cells mL^–1. 100 μL of cell-laden hydrogel was then dispensed into ThinCert inserts (Greiner Bio-One) in 24-well plates and cell culture medium (1 mL) was added into each well/insert. 250 μL was added to the top of the hydrogel surface in the inset, and 750 μL was added to the well. Cell culture plates were then incubated at 37 °C with 5% of the CO2. The growth medium was changed every 20 min during the first hour of the experiment and subsequently every 2 days.
To assess cell viability in the hydrogels, the live/dead assay (Thermo Fisher Scientific) was used. The cell culture medium was removed, and the samples were washed 3 times with DPBS. A working solution of staining reagent was prepared in DPBS (4 μM ethidium homodimer I and 2 μM calcein-AM) and 100 μL was added to the top of the hydrogel surfaces (in the insets) and a further 600 μL into the wells. […]

Data set [3] can be described thus: Peptide titration with NaOH (pKa-like transitions, net charge assignment). The data set is classed as physicochemical. As to conditions: stepwise NaOH addition to peptide solution in HPLC grade water; for first pKa-like transition (deprotonation of glutamic acid side groups), pH: start pH ∼3.2, transition observed up to this pH. How it is done:
Peptide titration experiments were performed by adding 0.1 or 0.5 M NaOH solutions in 1–2 μL steps to a 1 mL HPLC-grade water peptide solution with a 2 mg mL^–1 starting concentration. After each NaOH addition, the samples were vigorously agitated using a vortex to ensure homogeneous mixing and the pH was measured using a Fisherbrand Hydrus 300 benchtop pH meter.
As stated in the introduction, these two peptides were designed to be “symmetrical” in relation to the position and distribution of their anionic (COOH/COO^–) and cationic (NH3^+/NH2) groups and to carry an overall theoretical net charge modulus of 1 at pH 7. As shown in our previous work, self-assembly can induce a shift in pKa of these ionic groups depending on the surrounding environment created.[26],[38] To investigate the effect of self-assembly on pKa of these groups, titration experiments were performed on each peptide at a […] concentration. The resulting curves are presented in Figure 2A, B. Both peptides were purchased as HCl salts; therefore, when dissolved in water low pH, ∼ 3.2, solutions were obtained. Upon addition of NaOH a first pKa-like transition was observed up to pH 5 for K(FEFK)2 and pH 4.5 for E(FKFE)2. This first transition is associated in both cases with deprotonation of the glutamic acid side groups.

A short description of data set [4]: Small-angle X-ray scattering of hydrogels. To be noted: for fibers cross-section radius of gyration, Rσ: SAXS Guinier fit, hydrogels 6 mg mL^–1, pH 7; for estimated fiber diameter, df: from Rσ assuming cylindrical geometry. The class given is physicochemical. How it is done:
SAXS experiments were performed on beamline I22 at the diamond light source (DLS) synchrotron (Didcot, UK).[31] The energy of the beam was 12.4 keV, corresponding to an X-ray wavelength of 0.1 nm. Quartz capillaries (1.5 mm outer diameter and 0.01 mm wall thickness) from Capillary Tube Supplies Ltd. (Bodmin, UK) were used as sample holders. The samples were prepared as described earlier and injected into the capillaries using a syringe. The sample-to-detector distance was fixed to 5.77 m, corresponding to an accessible momentum transfer vector range of 0.1 nm^–1 < q = (4π/λ) sin(θ/2) < 3.0 nm^–1, where θ is the scattering angle and λ is the wavelength of the incident photons. Calibration of the SAXS detector (Pilatus P3–2M, Dectris, Switzerland) was performed using silver behenate powder, and data were collected as 10 × 100 ms frames. Data were reduced using the Dawn software suite available from DLS.[32] The 2D isotropic scattering patterns were corrected for the detector response, dark current background, and sample transmission and then azimuthally integrated to generate 1D scattering patterns. Under these conditions, the sample coherent normalized scattering intensity IN(q) is [drawing 2] 1 where Ip(q) is the normalized intensity scattered by the sample, Is(q) is the normalized intensity scattered by the solvent in our case HPLC grade water, Cp is the peptide concentration in g cm^–3, and Ib is the background scattering originating mainly from the incoherent scattering of the peptides. Is(q) was obtained by measuring the scattering of the solvent, HPLC grade water, and Ib was estimated using the Porod law that gives the scattered intensity of a two-phase system at high q values: [drawing 3] 2 where Kp is the Porod constant. Ib was estimated by fitting the last 40 data points of the 1D scattering patter using a Porod plot [q^4I(q) vs q^4].[33]−[36]
The formation of fibers and fibrillar entangle networks was confirmed by SAXS and TEM. […] From a Guinier representation, ln qI(q) vs q^2, the fibers cross-section radius of gyration, Rσ, can be obtained. Indeed, it has been shown that for thin rod-like structures for qRσ < 1 the scattering intensity can be written as[34],[39] [drawing 4] 3
From the fitting of the linear region, Rσ values of 1.2 ± 0.2 nm for K(FEFK)2 and 1.4 ± 0.2 nm for E(FKFE)2 were obtained. Assuming a cylindrical geometry, Rσ can be related to the fiber diameter, df, through: [drawing 5] 4

Data set [5] in a line: Hydrogel behaviour in cell culture media without cells. The data set is classed as physicochemical. To be noted: after 14 days in cell culture media (DMEM, αMEM), no cells, 37 °C. How it is done: Rheological measurements were performed using a Discovery Hybrid 2 (DHR-2) rheometer from TA Instruments (New Castle, Delaware, USA) using a 20 mm parallel plate geometry and a 500 μm gap. Samples were prepared as described earlier. Hydrogels (200 μL) were pipetted onto the rheometer’s static bottom plate and the rheometer top plate lowered to the desired gap size. For hydrogel in cell culture inserts and conditioned with cell culture media (see below), the bottom membranes of the insets were removed, and the hydrogels deposited on the rheometer’s static bottom plate. Samples were covered with a solvent trap to avoid evaporation and left to equilibrate at 37 °C for 180 s before the experiments. Strain sweep experiments were performed at 1 Hz in the 0.01–100% strain range. The shear-thinning and recovery (i.e., injectability) experiments were performed by applying sequentially a low shear strain (0.2%) for 5 min followed by a high shear strain (1000%) for 1 min and again a low shear strain (0.2%) for 5 min.
Hydrogel samples were removed from the fridge (4 °C) and prewarmed to 37 °C. Cells were encapsulated into the hydrogel by gentle pipetting to ensure an evenly mixed sample, at a final density of 1 × 10^6 cells mL^–1. 100 μL of cell-laden hydrogel was then dispensed into ThinCert inserts (Greiner Bio-One) in 24-well plates and cell culture medium (1 mL) was added into each well/insert. […]

The next data set in a line: TEM fiber width analysis. The data set is classed as physicochemical. As to conditions: log-normal fit, 700 fibers, cut-off 20 nm, hydrogels 12 mg mL^–1 peptide (0.8 mg mL^–1 polymer where loaded), pH 7, diluted 20-fold. How it is done: Hydrogels were prepared as described earlier and diluted 20-fold using HPLC-grade water. The samples were vigorously mixed with a vortex to separate as much as possible the fibers. A carbon-coated copper grid (400 mesh grid Electron Microscopy Sciences, Hatfield, Pennsylvania, USA) was glow discharged and charged negatively. The carbon copper grid was then placed sequentially on a 10 μL sample droplet for 60 s, a 10 μL droplet of HPLC grade water for 10 s three times, a 10 μL droplet of 5% uranyl acetate solution for 30 s, and finally, on a 10 μL droplet of HPLC grade water for 10 s. After each step, excess liquid was drained off using lint-free tissue (90 mm Whatman 1). The grid was then left to air-dry for 2–5 min. TEM images were taken using an FEI Tecnai12 BioTwin transmission electron microscope running at 100 kV and equipped with a Gatan Orius SC1000A CCD camera. Fiber width analysis was performed by measuring randomly the widths of 700 fiber (cut-off size 20 nm) using ImageJ software across at least three TEM images for each sample.

Data set [6] deals with immortalized human bone marrow-derived MSC line (Y201). The data set is described as follows: 3D cell culture, PicoGreen assay. The data set is classed as cell-based. As to conditions: MSCs, 3D culture, over 14 days. How it is done:
as §1, §2
(§3) To quantify the number of cells present in the hydrogels, the amount of cells’ dsDNA was quantified via PicoGreen assay (Invitrogen, Thermo Fisher Scientific). […] When ready for analysis, the samples were removed from the −20 °C freezer, thawed at room temperature, and agitated until homogeneous. […] The assay plate was incubated at room temperature in the dark for 5 min then measured using a plate reader (CLARIOstar), using fluorescence detection with excitation at 480–512 nm and emission at 520 nm. […]

A further data set relates to 3T3 mouse fibroblast. Briefly: 3D cell culture, PicoGreen assay. The data set is classed as cell-based. To be noted: 3T3 fibroblasts, 3D culture, 14 days; hydrogel prepared at 20 mg mL^–1. How it is done: as §1, §2, §3

Data on two sequences can be found in publication PMC11170954, “Effect of Peptide–Polymer Host–Guest Electrostatic Interactions on Self-Assembling Peptide Hydrogels Structural and Mechanical Properties and Polymer Diffusivity” (Biomacromolecules, 2024).

Ends that are not written are not given here.

EFKFEFKFE [E(FKFE)2]: the shift of terminal NH3+ apparent pKa vs theoretical was 1 unit. Moreover, the “hydrogel stability in excess water” value in [1] (10 days, 37 °C) is “unstable and after 10 days dissolved”. Also, the “cell viability (live/dead)” value in [2] was “higher”. Besides, the “hydrogel stability in MSC culture” value in [2] (after 14 days of 3D culture with MSCs) is given as “dissolve”. Also, in data set [3], the “pKa-like transition assigned to deprotonation of lysine side chain amino groups, pH from which upward” value is no less than 10.0 pH and the “first pKa-like transition (deprotonation of glutamic acid side groups), pH” value is reported as no more than 4.5 pH. In [4], the “fibers cross-section radius of gyration, Rσ” value is 1.4 ± 0.2 nm and the “estimated fiber diameter, df” value was 4.0 ± 0.5 nm. Further, the “hydrogel integrity when extracted from cell culture inserts” value in [5] is “some loss of integrity and loss of shape”. Further, the “fiber widths distribution maximum” value in “TEM fiber width analysis” amounted to 4.5 ± 0.9 nm. In data set [6], the “change in cell number (PicoGreen)” value is “decrease in cell number”.

Turning to KFEFKFEFK [K(FEFK)2], in data set [1] (day 10, 37 °C), the swelling is recorded as ~30 % (v/v). Moreover, the “cell viability (live/dead)” value in [2] is “good”. In [3], the “pKa-like transition assigned to deprotonation of lysine side chain amino groups, pH from which upward” value is listed as no less than 9.5 pH and the “first pKa-like transition (deprotonation of glutamic acid side groups), pH” value was no more than 5 pH. For the same sequence, in [4], the “fibers cross-section radius of gyration, Rσ” value amounted to 1.2 ± 0.2 nm and the “estimated fiber diameter, df” value was 3.3 ± 0.5 nm. The “hydrogel integrity when extracted from cell culture inserts” value in data set [5] is “keep their integrity and shape”. Moreover, in “TEM fiber width analysis”, the “fiber widths distribution maximum” value is 4.9 ± 1.0 nm. Moreover, the “cell proliferation (cell number, PicoGreen)” value in the data set on 3T3 mouse fibroblast is “Significant proliferation”. Besides, the “change in cell number (PicoGreen)” value in data set [6] was “no significant change in cell number”.
